Results on 1 substance are retold here after patent publication US20160074553A1, “DRESSING FOR COMPROMISED WOUND HEALING” (CONSEJO SUPERIOR DE INVESTIGACIONES CIENTIFICAS (CSIC), priority 2012, published 2016).

Data set [1] is described as follows: Thermogravimetric analysis (TGA) of polymers and nanoparticle systems. It is filed as physicochemical. How it is done:
The thermogravimetric analysis (TGA) was carried out under N2 atmosphere in TGA Q500 (TA) equipment between 25 and 600° C. with a heating rate of 10° C./min.
The products were characterized by ATR-FTIR (4000 to 600 cm−1), TGA (25 to 600° C. under nitrogen atmosphere at 10° C./min) and DSC (the scan was carried out at a constant rate of 10° C./min, with a N2 flow of 20 ml/min, with temperatures in the range of −20 to 180° C.) to determine the glass transition temperature of the NP. For the calculation of the Tg, the temperature at which half of the difference in specific heat between the vitreous amorphous and elastomer amorphous states is reached is taken, that is, Tg=½ ΔCp. This point corresponds to the inflection point of the change in slope in the thermogram of the second scan.

Another data set has as its system BaF32 cells. Nature of the data set: BaF32 proliferation assay. It is filed as cell-based. Here is the method:
The measurements of biological activity of the free and encapsulated bemiparin were carried out by cell proliferation assay. For this, BaF32 cells were used, which are a type of lymphocyte B, the cell signalling of which is mediated by the formation of a complex between the bemiparin, the FGF-2 and its corresponding FGFR1c receptor on the cell surface.
Bemiparin forms a ternary complex (FIG. 27) with the fibroblast growth factor (FGF-2) and its corresponding specific membrane receptor (FGFR1c) thus increasing the cellular signalling process corresponding to the proliferation process (Dillen, K., J. Vandervoort, G. Van den Mooter, and A. Ludwig. 2006. Evaluation of ciprofloxacin-loaded Eudragit® RS100 or RL100/PLGA nanoparticles. International Journal of Pharmaceutics 314 (1): 72-82; Eto, T. 2001. A review of the biological properties and clinical implications of adrenomedullin and proadrenomedullin N-terminal 20 peptide (PAMP), hypotensive and vasodilating peptides. Peptides 22 (11): 1693-1711). Given this property, an experiment was designed to verify that the encapsulated bemiparin maintains its biological activity. For this BaF32 cells were used, which are a type of lymphocyte B, the cell signalling of which is modulated by a by a specific bond between the FGF-2 and its corresponding FGFR1c receptor on the cell surface.

The conditions of data set [2]: donated by ROVI pharmaceutical laboratories; cited from earlier work.

For the substance bemiparin, in data set [1], the “T10% (temperature at which 10% of the system has been degraded)” value was found to be 120 °C. Moreover, the “effect on cell proliferation / activity of the FGF-2” value in the data set with BaF32 cells (FGF-2, FGFR1c) is on record as “promoting cell proliferation”. Also, in the data set on BaF32 cells (different concentrations of bemiparin), the “dependence of the cellular response on the concentration of bemiparin” value is reported as “independent from the concentration of bemiparin used”. In data set [2], the “activity of bemiparin as supplied” value was 111.3 IU/mg.
